Consider one substance from US4816441A, “Peptides and compositions” (priority 1985, dated 1989).

In data set [1] the test system is Daudi. The experiment in a line: NK-like activity of PBL incubated with SpA peptides or intact SpA, 51Cr release, Daudi targets. The class given is cell-based, human. The note with it: E/T 10:1. The protocol: (§1) K-cell activity is here defined as the increase in cell mediated cytotoxicity of normal peripheral blood leukocytes (PBL) against tumor derived target cells. PBL were isolated by the Boyum method (Scand.J.Clin.Lab.Invest. 22 (1968) 77) by centrifugation of heparinized blood from healthy donors on Ficoll-Hypaque® (Pharmacia, Uppsala, Sweden). In many experiments adherent cells were removed by incubating PBL in sterile glass bottles at 37° C. for 1 to 2 hours.
(§2) The cell lines were kept in culture in RPMI 1640 (Gibco, Paisley, Scotland, Cat. No. 041-1875) to which was added fetal calf serum (10% v/v) (FCS) as well as penicillin (100 IU/ml) and streptomycin (100 μg/ml) at 37° C. and carbon dioxide in air.
(§3) The target cells were labelled with ^51 Cr (New England Nuclear, Dreieich, West Germany).
(§4) The medium used was RPMI 1640 to which was added 10% of FCS, penicillin (100 IU/ml) and streptomycin (100 μg/ml). After incubation, the cell density was adjusted and the cells were distributed in round-bottom microtiter plates (NUNC, Roskilde, Denmark). ^51 Cr-labeled K562 target cells were added to a desired ratio between effector (E) and target (T) cells (E/T 10:1). After a further 4 hours of incubation at 37° C. with 6% CO2 in air, the plates were placed on a Titertek® microtiter plate shaker (Flow Laboratories Ltd., Ayrshire, Scotland). The microtiter plates were centrifuged and known volumes of the supernatant removed by suction and counted ^51 Cr-sample). As maximum value (^51 Cr-max), use was made of the supernatant from K562 incubated with saponin. The spontaneous release of ^51 Cr (^51 Cr-spont) was measured by incubating ^51 Cr-K562 without effector cells.
(§5) Kill %: […]
(§6) The method employed was practically the same as above for Daudi and Raji targets. The only substantial difference was that no preincubation was performed prior to addition of the ^51 Cr-labelled target cells, and the complete incubation of effector and target cells was done in 24 hours. The Kill % was calculated as described above.

A further data set deals with complement system. The experiment in a line: Activation of complement: generation of C5a des-Arg in normal human serum (RIA). The class given is biochemical. The note with it: 60 minutes incubation, aliquots at 0, 30, 60 minutes, FIG. 4. Here is the method:
In order to investigate the influence of the compounds of the invention on the complement system a test was performed in which the generation of the complement split product C5a was used as a measure of the activation of complement.
Aliquots were taken after 0, 30, and 60 minutes and the generated C5a des-Arg was quantitated by a commercial RIA-kit (Upjohn Company, Kalamazoo, MI).

Data set [2] has as its system Daudi. The experiment in a line: Long-term test, LAK-like activity, Daudi targets. Format: cell-based, human. The note with it: 20 μg/ml; E/T 10:1.
Protocol: 6×10^6 monocyte-depleted mononuclear cells were incubated in 6 ml RPMI 1640 +5% FCS, penicillin (100 IU/ml) and streptomycin (100 μg/ml) in vertically suspended Falcon flasks (Falcon Plastics, Oxnard, CA., USA, Cat. No. 3013). As in the short-term test, 1.5, 6, 25 or 100 μg peptide per ml, respectively, were added. […] Incubation for 72 h at 37° C., 7% CO2. The cells were counted, density adjusted and the cells incubated together with ^51 Cr-labelled Raji and Daudi target cells. E/T ratios were: 10:1 and 20:1. In the Daudi test the incubation lasted 16 hours, in the Raji test it was 18 hours (round-bottom microtiter plates, as above).
The nature of data set [3]: Guinea pig model: anaphylactoid-like reaction after intravenous administration. The class given is in vivo, guinea pigs of Dunkin-Hartley strain. Particulars: anaesthesized artificially ventilated guinea pigs. The protocol:
Guinea pigs of Dunkin-Hartley strain (ca. 500 g) were anaesthesized with sodium pentobarbital and were surgically prepared with a catheter in the jugular vein for drug infusion. The blood pressure was registered from a carotid artery. The animals were artificially ventilated by a Harvard small animal respirator at a cycle of 38 insufflations per min. and a volume of 1 ml per 100 g animal.

For the next data set, the system named is Raji. The experiment in a line: NK-like activity of PBL incubated with SpA peptides or intact SpA, 51Cr release, Raji targets. Particulars: E/T 10:1. The class given is cell-based, human. Here is the method: as §1, §2, §3, §4, §5, §6

Consider “SpA: protein A from Staphylococcus aureus, purified, from Pharmacia, Uppsala, Sweden”, for which the “% kill Daudi” value was 66% in the data set on Daudi [1] (5 μg/ml (12.5 pmol/ml)), 71% in the data set on Daudi [1] (5 μg/ml (125 pmol/ml)) and 77% in the data set with Daudi [1] (10 μg/ml (250 pmol/ml)). Also, the “Activation of complement (C5a des-Arg generation)” value in the data set on complement system is given as “considerable C5a generating capacity”. For the same substance, the “Stimulation index, long-term assay (LAK-like activity), Daudi” value in the data set on Daudi [2] is 1.19. For the same substance, in data set [3], the “Anaphylactoid-like reaction (bronchoconstriction, hypertension, later hypotension)” value is “produced an anaphylactoid-like reaction”. Further, the “% kill Raji” value with Raji (5 μg/ml (12.5 pmol/ml)) came out at 31%; in the data set with Raji (5 μg/ml (125 pmol/ml)) it was 46%; in the data set on Raji (10 μg/ml (250 pmol/ml)), 46%.
